US20220348569A1 (priority 2021, published 2022)
≈ marks a conversion by molar mass, not a printed value. Where “and” joins values, the source holds several entries; their conditions need not be identical. Identical values can stand only once. Entries after “also recorded” stand apart in the source; their conditions may differ. Like-named read-outs stand apart in the source and are kept apart here.

Experiments:
[1] = tested on: SARS-CoV pseudovirus; test: microbe, parasite or virus in culture; assay type: cell-based; settings: Severe acute respiratory syndrome coronavirus, 293T/ACE2
[2] = tested on: SARS-CoV pseudovirus; test: microbe, parasite or virus in culture; assay type: cell-based; settings: Severe acute respiratory syndrome coronavirus, A549-ACE2
[3] = tested on: MERS-CoV pseudovirus; test: microbe, parasite or virus in culture; assay type: cell-based; settings: Middle East respiratory syndrome-related coronavirus, Huh-7
[4] = tested on: MERS-CoV pseudovirus; test: microbe, parasite or virus in culture; assay type: cell-based; settings: Middle East respiratory syndrome-related coronavirus, MRC5
[5] = tested on: SARS-CoV-2 (US_WA-1/2020); assay type: cell-based
[6] = tested on: SARS-CoV-2 full Spike wild-type (Wuhan-Hu-1) mediated cell-to-cell fusion; test: cells; assay type: cell-based
[7] = molecular target: SARS-CoV-2 spike (active trimer) His-tag (Severe acute respiratory syndrome coronavirus 2, UniProt P0DTC2); assay type: binding
[8] = tested on: SARS-CoV-2 pseudovirus; test: microbe, parasite or virus in culture; assay type: cell-based
[9] = rat, in vivo
[10] = pH 7.4
[11] = human, microsomes
[12] = molecular target: CYP1A2 (Homo sapiens, UniProt P05177)
CYP1A2, sequence (P05177 whole entry): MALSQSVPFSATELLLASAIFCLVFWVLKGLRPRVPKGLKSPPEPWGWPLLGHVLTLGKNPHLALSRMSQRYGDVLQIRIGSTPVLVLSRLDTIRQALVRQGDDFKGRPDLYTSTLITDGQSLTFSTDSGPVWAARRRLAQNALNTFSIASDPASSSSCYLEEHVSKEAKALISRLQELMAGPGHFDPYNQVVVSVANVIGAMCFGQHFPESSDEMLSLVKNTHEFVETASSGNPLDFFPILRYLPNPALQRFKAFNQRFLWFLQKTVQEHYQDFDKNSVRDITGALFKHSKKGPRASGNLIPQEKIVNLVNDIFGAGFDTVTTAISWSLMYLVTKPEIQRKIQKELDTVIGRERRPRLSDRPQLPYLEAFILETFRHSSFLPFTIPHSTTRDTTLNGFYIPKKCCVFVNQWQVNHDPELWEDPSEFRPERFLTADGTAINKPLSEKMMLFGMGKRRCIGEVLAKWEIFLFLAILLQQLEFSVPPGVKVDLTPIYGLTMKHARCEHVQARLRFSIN

[13] = molecular target: CYP2B6 (Homo sapiens, UniProt P20813)
CYP2B6, sequence (P20813 whole entry): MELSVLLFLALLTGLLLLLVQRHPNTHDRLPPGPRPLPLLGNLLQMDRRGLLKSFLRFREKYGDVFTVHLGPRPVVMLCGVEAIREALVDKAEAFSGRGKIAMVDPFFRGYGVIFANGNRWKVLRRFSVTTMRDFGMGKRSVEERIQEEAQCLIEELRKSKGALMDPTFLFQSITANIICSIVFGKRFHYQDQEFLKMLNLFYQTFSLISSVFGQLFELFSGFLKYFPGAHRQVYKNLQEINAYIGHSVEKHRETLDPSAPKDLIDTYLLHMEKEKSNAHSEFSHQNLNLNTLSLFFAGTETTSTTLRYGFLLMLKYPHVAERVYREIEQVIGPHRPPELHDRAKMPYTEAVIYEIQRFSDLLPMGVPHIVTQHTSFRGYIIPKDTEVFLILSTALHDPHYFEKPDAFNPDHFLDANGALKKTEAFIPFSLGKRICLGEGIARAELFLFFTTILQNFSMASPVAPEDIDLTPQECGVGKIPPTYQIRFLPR

[14] = molecular target: CYP2C8 (Homo sapiens, UniProt P10632)
CYP2C8, sequence (P10632 whole entry): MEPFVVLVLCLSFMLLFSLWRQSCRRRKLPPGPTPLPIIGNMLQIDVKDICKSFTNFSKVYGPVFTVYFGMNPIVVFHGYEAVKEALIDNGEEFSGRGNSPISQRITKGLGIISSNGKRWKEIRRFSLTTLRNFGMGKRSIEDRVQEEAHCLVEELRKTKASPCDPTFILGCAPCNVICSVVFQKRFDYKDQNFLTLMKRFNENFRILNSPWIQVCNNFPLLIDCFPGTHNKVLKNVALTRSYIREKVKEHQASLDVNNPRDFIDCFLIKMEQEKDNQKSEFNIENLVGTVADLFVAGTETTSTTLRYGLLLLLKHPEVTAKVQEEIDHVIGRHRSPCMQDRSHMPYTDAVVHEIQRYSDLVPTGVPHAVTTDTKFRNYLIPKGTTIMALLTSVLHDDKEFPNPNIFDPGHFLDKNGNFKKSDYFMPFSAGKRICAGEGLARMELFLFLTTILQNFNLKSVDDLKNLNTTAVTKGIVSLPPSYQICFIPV

[15] = molecular target: CYP2C9 (Homo sapiens, UniProt P11712)
CYP2C9, sequence (P11712 whole entry): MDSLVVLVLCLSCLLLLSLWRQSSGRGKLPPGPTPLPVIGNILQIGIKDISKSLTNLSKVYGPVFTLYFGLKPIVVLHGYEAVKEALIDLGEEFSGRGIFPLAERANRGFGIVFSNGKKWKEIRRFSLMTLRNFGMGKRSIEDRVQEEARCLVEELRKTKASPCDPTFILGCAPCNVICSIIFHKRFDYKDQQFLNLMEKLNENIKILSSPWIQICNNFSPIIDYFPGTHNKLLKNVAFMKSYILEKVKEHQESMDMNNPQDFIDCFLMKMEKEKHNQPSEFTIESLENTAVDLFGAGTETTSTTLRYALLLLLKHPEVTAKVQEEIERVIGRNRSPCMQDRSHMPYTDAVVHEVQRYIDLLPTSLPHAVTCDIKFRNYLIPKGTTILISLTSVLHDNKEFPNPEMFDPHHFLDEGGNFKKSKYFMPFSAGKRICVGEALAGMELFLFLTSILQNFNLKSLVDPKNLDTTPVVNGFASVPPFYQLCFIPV

[16] = molecular target: CYP2C19 (Homo sapiens, UniProt P33261)
CYP2C19, sequence (P33261 whole entry): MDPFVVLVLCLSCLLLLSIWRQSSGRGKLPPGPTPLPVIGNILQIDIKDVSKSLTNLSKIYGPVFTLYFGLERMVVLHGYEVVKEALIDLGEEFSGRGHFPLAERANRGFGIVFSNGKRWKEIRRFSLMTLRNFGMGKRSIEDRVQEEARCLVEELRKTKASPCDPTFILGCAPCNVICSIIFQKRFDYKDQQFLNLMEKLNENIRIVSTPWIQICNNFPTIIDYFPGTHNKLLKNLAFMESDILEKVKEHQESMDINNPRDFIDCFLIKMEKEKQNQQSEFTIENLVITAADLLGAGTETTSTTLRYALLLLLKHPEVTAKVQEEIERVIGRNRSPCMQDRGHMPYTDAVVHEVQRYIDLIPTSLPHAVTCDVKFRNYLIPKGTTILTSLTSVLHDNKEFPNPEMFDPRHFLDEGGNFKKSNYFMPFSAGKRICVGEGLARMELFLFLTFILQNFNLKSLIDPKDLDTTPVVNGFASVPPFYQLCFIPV

[17] = molecular target: T1, CYP2D6 (Homo sapiens, UniProt P10635)
T1 sequence (P10635 whole entry): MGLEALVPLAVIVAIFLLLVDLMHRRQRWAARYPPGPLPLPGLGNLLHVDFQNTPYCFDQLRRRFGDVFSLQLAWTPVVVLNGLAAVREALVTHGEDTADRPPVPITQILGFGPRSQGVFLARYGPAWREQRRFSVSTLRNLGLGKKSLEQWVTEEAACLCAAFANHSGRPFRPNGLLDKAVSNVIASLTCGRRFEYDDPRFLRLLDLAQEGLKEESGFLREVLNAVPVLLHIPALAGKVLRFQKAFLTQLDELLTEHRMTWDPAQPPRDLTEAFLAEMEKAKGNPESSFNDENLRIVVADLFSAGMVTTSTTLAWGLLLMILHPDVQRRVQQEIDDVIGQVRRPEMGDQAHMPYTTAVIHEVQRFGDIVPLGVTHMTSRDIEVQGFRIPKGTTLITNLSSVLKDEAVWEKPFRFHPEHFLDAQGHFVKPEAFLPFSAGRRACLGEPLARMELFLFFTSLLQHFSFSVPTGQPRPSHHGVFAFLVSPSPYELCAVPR

[18] = molecular target: CYP3A (Homo sapiens, UniProt P08684)
CYP3A, sequence (P08684 2-503): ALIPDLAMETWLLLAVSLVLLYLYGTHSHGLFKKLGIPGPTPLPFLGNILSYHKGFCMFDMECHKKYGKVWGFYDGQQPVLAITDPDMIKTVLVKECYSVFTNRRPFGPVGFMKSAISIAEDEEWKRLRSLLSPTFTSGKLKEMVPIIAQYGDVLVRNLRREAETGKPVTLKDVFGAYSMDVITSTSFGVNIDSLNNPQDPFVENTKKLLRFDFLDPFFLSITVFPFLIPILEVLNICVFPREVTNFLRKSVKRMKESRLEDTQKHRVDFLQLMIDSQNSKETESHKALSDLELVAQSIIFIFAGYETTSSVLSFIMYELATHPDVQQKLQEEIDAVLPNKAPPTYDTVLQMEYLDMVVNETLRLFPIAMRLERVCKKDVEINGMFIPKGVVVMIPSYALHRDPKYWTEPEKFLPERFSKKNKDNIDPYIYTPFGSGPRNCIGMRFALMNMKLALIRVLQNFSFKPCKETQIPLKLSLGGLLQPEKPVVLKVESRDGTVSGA

[19] = in vivo; settings: female, Sprague Dawley, rat
[20] = in vitro; settings: human
[21] = molecular target: T1, CYP2D6; test: biochemical
[22] = female, Sprague Dawley, iv, 5 mg/kg

SMILES: O=C(O)c1cc(-c2ccc(/C=C3\SC(=S)N(CCc4ccccc4)C3=O)o2)ccc1Cl [Compound 1, (Z)-2-Chloro-5-(5-((4-oxo-3-phenethyl-2-thioxothiazolidin-5-ylidene)methyl)furan-2-yl)benzoic acid]
- IC50 [1]: 13.8 to 17 nM
- IC50 [2]: 98 to 157 nM
- IC50 [3]: 95 to 158 nM
- IC50 [4]: 76.5 to 123 nM
- IC100 [5]: 1.25 µM
- inhibition of SARS-CoV-2 mediated cell-to-cell fusion (in words) [6]: potently inhibited the cell-to-cell fusion even at the lowest dose
- inhibition at 0.25 µM ([6]; Severe acute respiratory syndrome coronavirus 2, Jurkat, at 250 nM, read-out: inhibitory activity of SARS-CoV-2 mediated cell-to-cell fusion): 62 to 79%
- ka [7]: 1040 M⁻¹ s⁻¹
- antiviral activity against SARS-CoV-2 pseudovirus (in words) [8]: low nanomolar activity; also recorded: excellent antiviral activity; also recorded: low nM IC50
- IC50 ([8]; Severe acute respiratory syndrome-related coronavirus, read-out: IC50s against SARS-CoV-2 pseudovirus over the cell lines): 32.3 to 63.4 nM
- melting point: 348 to 350 °C
- C0 [9, 22]: 7407.25 ng/mL
- CLobs [9, 22]: 0.00013 mg/kg/(ng/mL)/hr
- MRT0-inf_obs [9, 22]: 4.02 h
- Vss_obs [9, 22]: 0.00053 mg/kg/(ng/mL)
- F % ([9]; female, Sprague-Dawley): 20.1%
- MRT0-inf_obs ([9]; female, Sprague-Dawley, po, 10 mg/kg): 14.34 h
- Vz/F_obs ([9]; po, 10 mg/kg): 0.01078 mg/kg/(ng/mL)
- Solubility in Phosphate Buffer, Average [10]: 4.72 µM (≈ 2.22 µg/mL)
- Solubility in Phosphate Buffer, R1 [10]: 4.35 µM (≈ 2.04 µg/mL)
- clearance (in words) [11]: low-clearance compound
- CYP inhibition class [12]: moderate (key: IC50 >10 μM (CYP inhibition low); <10 μM (CYP inhibition moderate); <3 μM (CYP inhibition high))
- % of Control Enzyme Activity (n = 1) ([12]; 0.0137 μM): 99.2%
- % of Control Enzyme Activity (n = 1) ([12]; 0.0412 μM): 96.7%
- % of Control Enzyme Activity (n = 1) ([12]; 0.123 μM): 93.8%
- % of Control Enzyme Activity (n = 1) ([12]; 0.370 μM): 92.2%
- % of Control Enzyme Activity (n = 1) ([12]; 1.11 μM): 89.8%
- % of Control Enzyme Activity (n = 1) ([12]; 3.33 μM): 69.5%
- % of Control Enzyme Activity (n = 1) ([12]; 10 μM): 41.3%
- IC50 ([12]; human, microsomes, pH 7.4): 7400 nM
- CYP inhibition class [13]: moderate (key: IC50 >10 μM (CYP inhibition low); <10 μM (CYP inhibition moderate); <3 μM (CYP inhibition high))
- % of Control Enzyme Activity (n = 1) ([13]; 0.0137 μM): 97.5%
- % of Control Enzyme Activity (n = 1) ([13]; 0.0412 μM): 98.1%
- % of Control Enzyme Activity (n = 1) ([13]; 0.123 μM): 90.4%
- % of Control Enzyme Activity (n = 1) ([13]; 0.370 μM): 94.2%
- % of Control Enzyme Activity (n = 1) ([13]; 1.11 μM): 76.9%
- % of Control Enzyme Activity (n = 1) ([13]; 3.33 μM): 47.0%
- % of Control Enzyme Activity (n = 1) ([13]; 10 μM): 15.2%
- IC50 ([13]; human, microsomes, pH 7.4): 3190 nM
- CYP inhibition class [14]: high (key: IC50 >10 μM (CYP inhibition low); <10 μM (CYP inhibition moderate); <3 μM (CYP inhibition high))
- % of Control Enzyme Activity (n = 1) ([14]; 0.0137 μM): 102%
- % of Control Enzyme Activity (n = 1) ([14]; 0.0412 μM): 89.0%
- % of Control Enzyme Activity (n = 1) ([14]; 0.123 μM): 98.3%
- % of Control Enzyme Activity (n = 1) ([14]; 1.11 μM): 76.9%
- % of Control Enzyme Activity (n = 1) ([14]; 3.33 μM): 25.3%
- % of Control Enzyme Activity (n = 1) ([14]; 10 μM): 3.87%
- IC50 ([14]; human, microsomes, pH 7.4): 2080 nM
- CYP inhibition class [15]: moderate (key: IC50 >10 μM (CYP inhibition low); <10 μM (CYP inhibition moderate); <3 μM (CYP inhibition high))
- % of Control Enzyme Activity (n = 1) ([15]; 0.0137 μM): 99.4%
- % of Control Enzyme Activity (n = 1) ([15]; 0.0412 μM): 98.2%
- % of Control Enzyme Activity (n = 1) ([15]; 0.123 μM): 97.2%
- % of Control Enzyme Activity (n = 1) ([15]; 0.370 μM): 95.1%
- % of Control Enzyme Activity (n = 1) ([15]; 1.11 μM): 85.1%
- % of Control Enzyme Activity (n = 1) ([15]; 3.33 μM): 59.9%
- % of Control Enzyme Activity (n = 1) ([15]; 10 μM): 29.8%
- IC50 ([15]; human, microsomes, pH 7.4): 5010 nM
- CYP inhibition class [16]: moderate (key: IC50 >10 μM (CYP inhibition low); <10 μM (CYP inhibition moderate); <3 μM (CYP inhibition high))
- % of Control Enzyme Activity (n = 1) ([16]; 0.0137 μM): 103%
- % of Control Enzyme Activity (n = 1) ([16]; 0.0412 μM): 110%
- % of Control Enzyme Activity (n = 1) ([16]; 0.123 μM): 101%
- % of Control Enzyme Activity (n = 1) ([16]; 0.370 μM): 102%
- % of Control Enzyme Activity (n = 1) ([16]; 1.11 μM): 92.0%
- % of Control Enzyme Activity (n = 1) ([16]; 3.33 μM): 70.8%
- % of Control Enzyme Activity (n = 1) ([16]; 10 μM): 40.7%
- IC50 ([16]; human, microsomes, pH 7.4): 7310 nM
- CYP inhibition class [17]: low (key: IC50 >10 μM (CYP inhibition low); <10 μM (CYP inhibition moderate); <3 μM (CYP inhibition high))
- % of Control Enzyme Activity (n = 1) ([17]; 0.0137 μM): 95.8%
- % of Control Enzyme Activity (n = 1) ([17]; 0.0412 μM): 98.7%
- % of Control Enzyme Activity (n = 1) ([17]; 0.123 μM): 98.6%
- % of Control Enzyme Activity (n = 1) ([17]; 0.370 μM): 101%
- % of Control Enzyme Activity (n = 1) ([17]; 1.11 μM): 97.0%
- % of Control Enzyme Activity (n = 1) ([17]; 3.33 μM): 84.3%
- % of Control Enzyme Activity (n = 1) ([17]; 10 μM): 59.2%
- CYP inhibition class [18]: low (key: IC50 >10 μM (CYP inhibition low); <10 μM (CYP inhibition moderate); <3 μM (CYP inhibition high))
- % of Control Enzyme Activity (n = 1) ([18]; 0.0137 μM): 96.7% and 96.6%
- % of Control Enzyme Activity (n = 1) ([18]; 0.0412 μM): 97.0%
- % of Control Enzyme Activity (n = 1) ([18]; 0.123 μM): 94.5% and 94.8%
- % of Control Enzyme Activity (n = 1) ([18]; 0.370 μM, 0.37 µM): 95.1% and 96.3%
- % of Control Enzyme Activity (n = 1) ([18]; 1.11 μM): 95.9% and 94.6%
- % of Control Enzyme Activity (n = 1) ([18]; 3.33 μM): 88.2% and 82.2%
- % of Control Enzyme Activity (n = 1) ([18]; 10 μM): 61.6% and 59.9%
- AUC(0-t) ([19]; iv, 5 mg/kg): 37500 ng·h/mL
- AUC(0-t) ([19]; po, 10 mg/kg): 12000 ng·h/mL
- CC50 [20]: 37500 ± 1000 nM
- IC50 [21]: > 10000 nM
